The subject of series [1] is influenza virus (IFV) A/California/07/2009 (H1N1) pdm09 strain. The experiment in a line: In vitro activity against influenza virus (CPE, CCK8, MDCK cells). It counts as cell-based. The conditions noted are these: 120 h, read-out: IFV (MDCK) EC50.
For series [2], the system named is respiratory syncytial virus (RSV) A long strain. Nature of the series: In vitro activity against respiratory syncytial virus (CPE, CCK8, HEp-2 cells). It counts as cell-based. The conditions noted are these: human respiratory syncytial virus, 120 h, MOI=0.02, 5 days.
In another series the test system is SFTSV-Nluc. The experiment in a line: microbe, parasite or virus in culture. The conditions noted are these: Severe fever with thrombocytopenia syndrome virus, Vero, 48 h. It counts as cell-based, severe fever with thrombocytopenia syndrome virus (SFTSV).
A further series is described as follows: in vitro. The conditions noted are these: dog.
A short description of series [3]: Solubility of compounds in water. The following applies: thermodynamic from solid.
A short description of series [4]: Cytotoxicity in HEp-2 cells (CCK8). The conditions noted are these: human.
Series [5] can be described thus: Stability test of compounds in solutions at different pH values.
Series [6] relates to influenza virus Influenza A/PR/8/34 (PR8). Nature of the series: In vivo efficacy for influenza virus in mice. Further details: species or system Balb/C mice.
The subject of series [7] is respiratory syncytial virus (RSV A2). The experiment in a line: In vivo efficacy for respiratory syncytial virus (RSV) in mice.
The mark [8] stands for this setting: buffered saline solution pH 4.0, 3 h.
Setting [9] is: buffered saline solution pH 4.0, 6 h.
Where [10] appears, read: buffered saline solution pH 4.0, 9 h.
The mark [11] stands for this setting: buffered saline solution pH 4.0, 12 h.
The mark [12] stands for this setting: buffered saline solution pH 4.0, 15 h.
[13] abbreviates: buffered saline solution pH 4.0, 18 h.
Where [14] appears, read: buffered saline solution pH 4.0, 21 h.
Setting [15] is: buffered saline solution pH 4.0, 24 h.
[16] abbreviates: buffered saline solution pH 6.8, 3 h.
Where [17] appears, read: buffered saline solution pH 6.8, 6 h.
The mark [18] stands for this setting: buffered saline solution pH 6.8, 9 h.
[19] abbreviates: buffered saline solution pH 6.8, 12 h.
Where [20] appears, read: buffered saline solution pH 6.8, 15 h.
The mark [21] stands for this setting: buffered saline solution pH 6.8, 18 h.
[22] abbreviates: buffered saline solution pH 6.8, 21 h.
Where [23] appears, read: buffered saline solution pH 6.8, 24 h.

Converted amounts (≈) assume the structure as drawn.

Turning to `CC(=O)OC[C@@]1(F)O[C@@H](n2ccc(=O)n(COC(=O)c3cccnc3)c2=O)[C@H](OC(C)=O)[C@@H]1OC(C)=O` [Compound X219], the half-maximal effective concentration (EC50) in series [1] was 3.92 µM; in series [2], 2.6 µM; with SFTSV-Nluc, 3.39 µM. Moreover, the inhibition at 10 µM in the series on SFTSV-Nluc (read-out: Inhibition rate (10 μM)) came to 91.7%. The CC50 in the series “in vitro” was over 10 µM. The compound also had a solubility at 15 min in series [3] of 700 µg/mL (≈ 1340 µM). Further, the CC50 at 5 days in series [4] was over 10 µM. Also, the “Content reduction (%)” value was 0.22% in series [5] (setting [8]); 0.34% in [5] (setting [9]); 0.44% in series [5] (setting [10]); 0.62% in [5] (setting [11]); 0.70% in series [5] (setting [12]); 0.78% in series [5] (setting [13]). The “Content reduction (%)” value is 0.93% in series [5] (setting [14]); 1.02% in [5] (setting [15]); 1.06% in series [5] (setting [16]); 1.86% in series [5] (setting [17]); 2.92% in [5] (setting [18]); 3.96% in series [5] (setting [19]). For the same compound, the “Content reduction (%)” value was found to be 5.27% in series [5] (setting [20]), 6.01% in [5] (setting [21]), 7.02% in series [5] (setting [22]) and 8.38% in series [5] (setting [23]).

Regarding `CC(=O)OC[C@@]1(F)O[C@@H](n2ccc(=O)n(COC(=O)c3cccnc3)c2=O)[C@H](OC(C)=O)[C@@H]1OC(C)=O.Cl` [X219 hydrochloride], the “pulmonary viral load compared with the PR8+vehicle group” value in series [6] ([…], X219 hydrochloride 10, 20, 30 mpk intragastric once daily, Day 4) is listed as “significantly reduced”. For the same compound, in series [6] ([…], intragastric once daily Day 0-3, X219 hydrochloride 10, 20 and 30 mpk, favipiravir 200 mpk), the “body weight after 4 days of infection compared with the initial body weight” value is given as “did not change significantly”. In addition, the “reduction of pulmonary viral load compared with the PR8+vehicle group” value in series [6] (dose 20 mg/kg intragastric once daily, Day 4) is recorded as “greater than 4 log10”; in series [6] (dose 30 mg/kg intragastric once daily, Day 4) it was “greater than 4 log10”. Besides, the “levels of inflammatory factors (IL-6, IL-8, IL-1B, TNF-α, ISG-15, and TNF-1B) in the lungs compared with the PR8+vehicle group” value in series [6] (lung tissue, Day 4) is recorded as “significantly lower”. Also, the “inhibitory effect on virus compared with the positive drug favipiravir (200 mpk)” value in series [6] (pulmonary viral load, Day 4) is reported as “significantly better”. Also, the “reduction in the pulmonary viral load compared with the vehicle group” value in series [7] (20 mpk intragastric once daily, Day 4) is recorded as “about 0.7 log10”. Further, the “change in the body weight” value in series [7] (RSV A2-infected BALB/C mice, X219 hydrochloride 20 mpk or X28-1 10 mpk intragastric once daily) was “began to show an increase in the body weight on Day 3”. For the same compound, in series [3], the solubility at 15 min was 4740 µg/mL. Moreover, the “Content reduction (%)” value is given as 0.24% in [5] (setting [8]); 0.28% in [5] (setting [9]); 0.34% in series [5] (setting [10]); 0.55% in [5] (setting [11]); 0.64% in series [5] (setting [12]); 0.72% in series [5] (setting [13]). For the same compound, the “Content reduction (%)” value in [5] (setting [14]) amounted to 0.73%; in series [5] (setting [15]), 0.87%; in series [5] (setting [16]) it was 0.98%; in series [5] (setting [17]), 2.03%; in [5] (setting [18]), 3.09%; in [5] (setting [19]), 4.10%. The “Content reduction (%)” value in series [5] (setting [20]) turned out to be 5.13%; in [5] (setting [21]) it was 6.13%; in series [5] (setting [22]), 7.07%; in series [5] (setting [23]) it was 8.02%.
